Test: xn = mol fraction of the nth substance listed

CNC(C)=O + CCCCn1cc[n+](C)c1.F[B-](F)(F)F
101 kPa
Settings	viscosity [mPa·s]
293.15 K, x2 = 0.8495	82.55
308.15 K, x2 = 0.714	24.65

CNC(C)=O + Cc1ccccc1
308.15 K, 101.33 kPa
Settings	viscosity [mPa·s]
x1 = 0.0366	0.4848
x1 = 0.1983	0.7283
x1 = 0.3436	1.012
x1 = 0.4518	1.26
x1 = 0.5799	1.582
x1 = 0.6965	1.936
x1 = 0.7868	2.28
x1 = 0.8882	2.718
x2 = 0.0175	3.188

CNC(C)=O + CCCO
303.15 K, 101 kPa
Settings	viscosity [mPa·s]
x1 = 0.1069	1.816
x1 = 0.1939	1.891
x1 = 0.3142	2.033
x1 = 0.3918	2.142
x1 = 0.4791	2.289
x1 = 0.5976	2.537
x1 = 0.6966	2.785
x1 = 0.7922	3.066
x1 = 0.9015	3.443

CCOCCO + C1COCCO1
viscosity [mPa·s], 101.33 kPa
Settings	x1 = 0.1009	x1 = 0.2023	x1 = 0.3051	x1 = 0.4014	x1 = 0.499	x1 = 0.602	x1 = 0.7004	x1 = 0.8031	x1 = 0.8976
298.15 K	1.293	1.299	1.324	1.367	1.424	1.511	1.6	1.733	1.844
303.15 K	1.069	1.066	1.085	1.119	1.162	1.228	1.299	1.4	1.487
308.15 K	0.982	0.992	1	1.028	1.07	1.12	1.183	1.268	1.344

CCn1cc[n+](C)c1.[Cl-] + CN(C)C=O
308.15 K, 101 kPa
Settings	viscosity [mPa·s]
x1 = 0.0524	1.045
x1 = 0.0867	1.355
x1 = 0.1232	1.705

CCOCCO + CC(C)O
viscosity [mPa·s], 101.33 kPa
Settings	x1 = 0.1024	x1 = 0.2002	x1 = 0.301	x1 = 0.4035	x1 = 0.5037	x1 = 0.6022	x1 = 0.6984	x1 = 0.8009	x1 = 0.9017
298.15 K	1.858	1.764	1.703	1.692	1.682	1.693	1.711	1.756	1.773
303.15 K	1.614	1.54	1.495	1.49	1.491	1.504	1.518	1.566	1.575
308.15 K	1.404	1.356	1.324	1.325	1.329	1.34	1.36	1.398	1.413
313.15 K	1.233	1.19	1.17	1.176	1.19	1.203	1.217	1.259	1.267

CC(CC(C)(C)C)CP(=O)(O)CC(C)CC(C)(C)C (configuration not stated) + ClC(Cl)Cl
298.15 K, 101 kPa
Settings	viscosity [mPa·s]
x1 = 0.0053	0.568
x1 = 0.0095	0.615
x1 = 0.011	0.638
x2 = 0.1271	90.02
x2 = 0.2117	75.09
x2 = 0.3912	50.44
x2 = 0.5499	30.02
x2 = 0.7028	11.91
x2 = 0.7739	6.921
x2 = 0.8002	5.613
x2 = 0.8091	5.202
x2 = 0.8378	3.942
x2 = 0.8852	2.458
x2 = 0.8924	2.301
x2 = 0.9394	1.35
x2 = 0.9426	1.28
x2 = 0.9762	0.818

CC(CC(C)(C)C)CP(=O)(O)CC(C)CC(C)(C)C (configuration not stated) + CCCCCC
298.15 K, 101 kPa
Settings	viscosity [mPa·s]
x1 = 0.0033	0.305
x1 = 0.0159	0.36
x1 = 0.0175	0.368
x2 = 0.0987	89.32
x2 = 0.1765	69.68
x2 = 0.2746	47.91
x2 = 0.4476	23.62
x2 = 0.642	9.432
x2 = 0.7262	5.982
x2 = 0.73	5.931
x2 = 0.796	3.39
x2 = 0.8384	2.461
x2 = 0.8555	2.122
x2 = 0.9097	1.221
x2 = 0.9111	1.203
x2 = 0.9623	0.504

CNC(C)=O + Cc1cc(C)cc(C)c1
308.15 K, 101.33 kPa
Settings	viscosity [mPa·s]
x1 = 0.0458	0.6101
x1 = 0.3137	1.08
x1 = 0.4362	1.342
x1 = 0.5467	1.621
x1 = 0.646	1.898
x1 = 0.7315	2.174
x1 = 0.8095	2.455
x1 = 0.8779	2.719
x2 = 0.0126	3.191

CCOCCO + CCCCOC(C)=O
298.15 K, 101 kPa
Settings	viscosity [mPa·s]
x1 = 0.0826	0.6948
x1 = 0.1249	0.7087
x1 = 0.1454	0.7178
x1 = 0.2182	0.7512
x1 = 0.3951	0.8537
x1 = 0.4691	0.9144
x1 = 0.502	0.9435
x1 = 0.5174	0.9569
x1 = 0.5604	0.9991
x1 = 0.6488	1.101
x1 = 0.7547	1.258
x1 = 0.7674	1.276
x1 = 0.7794	1.296
x1 = 0.9079	1.564
x1 = 0.9531	1.676
x1 = 0.9678	1.72

CCOCCO + CCCCCCCCCCCC
viscosity [mPa·s], 101.33 kPa
Settings	x1 = 0.1001	x1 = 0.1987	x1 = 0.3009	x1 = 0.3972	x1 = 0.5014	x1 = 0.5996	x1 = 0.6933	x1 = 0.7988	x1 = 0.8984
298.15 K	1.288	1.294	1.321	1.339	1.379	1.412	1.453	1.529	1.636
303.15 K	1.171	1.174	1.195	1.223	1.256	1.284	1.317	1.387	1.465
308.15 K	1.075	1.076	1.09	1.115	1.138	1.166	1.191	1.254	1.316
313.15 K	0.986	0.987	0.997	1.02	1.045	1.063	1.082	1.139	1.191

CCOCCO + O=S1(=O)CCCC1
303.15 K
Settings	viscosity [mPa·s]
101 kPa, x2 = 0.0459	1.145
101 kPa, x2 = 0.1045	0.887
101 kPa, x2 = 0.1957	0.692
101 kPa, x2 = 0.2957	0.877
101 kPa, x2 = 0.3504	1.721
101 kPa, x2 = 0.3966	2.176
101 kPa, x2 = 0.4471	2.684
101 kPa, x2 = 0.4987	3.644
101 kPa, x2 = 0.5514	4.636
101 kPa, x2 = 0.5999	5.66
101 kPa, x2 = 0.6984	6.898
101 kPa, x2 = 0.8002	8.224
101 kPa, x2 = 0.8997	9.136
101.33 kPa, x1 = 0.042	8.909
101.33 kPa, x1 = 0.0712	7.997
101.33 kPa, x1 = 0.109	7.117
101.33 kPa, x1 = 0.1849	5.742
101.33 kPa, x1 = 0.2899	4.443
101.33 kPa, x1 = 0.3942	3.612
101.33 kPa, x1 = 0.5561	2.759
101.33 kPa, x1 = 0.6236	2.472
101.33 kPa, x1 = 0.6586	2.349
101.33 kPa, x1 = 0.7385	2.108
101.33 kPa, x1 = 0.7622	2.027
101.33 kPa, x1 = 0.8406	1.843
101.33 kPa, x1 = 0.9162	1.688
101.33 kPa, x1 = 0.9539	1.619

Source: the CheMixHub viscosity set
